Laboratory results as given in patent US20190045783A1, “SUBSTITUTED IMIDAZOLYLCARBOXAMIDES AS PESTICIDES” (BAYER CROPSCIENCE AKTIENGESELLSCHAFT, priority 2016, published 2019).
Read-outs that look alike come from different tables or passages of the source.

Experiments:
[1] = log P by HPLC on reversed-phase column (C18), EEC directive 79/831 Annex V.A8; format: physicochemical
[2] = test system: green peach aphid (Myzus persicae); test: Myzus persicae spray test (Chinese cabbage leaf discs); format: in vivo; conditions: for pest or weed control at 500 g/ha: Myzus persicae, foliar, read-out: efficacy in %
Method: Myzus persicae—Spray Test
To produce a suitable active ingredient formulation, 1 part by weight of active ingredient is dissolved with the stated parts by weight of solvent and made up with water containing an emulsifier concentration of 1000 ppm until the desired concentration is attained. To produce further test concentrations, the formulation is diluted with emulsifier-containing water.
After 5-6 days, the efficacy in % is determined. 100% means that all the aphids have been killed; 0% means that no aphids have been killed.

[3] = test system: green peach aphids (Myzus persicae); test: Myzus persicae oral test; format: in vivo; conditions: for pest or weed control at 20 ppm: Myzus persicae, 120 h, read-out: efficacy in %
Method: (§1) Solvent: 100 parts by weight of acetone
Subsequently, the plates are sealed with parafilm, which a mixed population of green peach aphids (Myzus persicae) within a second microtitre plate is able to puncture and imbibe the solution through it.
After 5 days, the efficacy in % is determined. 100% means that all the aphids have been killed; 0% means that no aphids have been killed.

[4] = test system: green peach aphid (Myzus persicae); test: Myzus persicae spray test (MYZUPE), comparison with prior art; format: in vivo; conditions: for Emax at 100 g/ha: Myzus persicae, read-out: % efficacy
Method: Myzus persicae—Spray Test (MYZUPE)
Emulsifier: alkylaryl polyglycol ether
(§2) After the desired period of time (dat), the efficacy in % is determined. 100% means that all the aphids have been killed; 0% means that no aphids have been killed.

[5] = test system: green peach aphids (Myzus persicae); test: Myzus persicae oral test (MYZUPE O), comparison with prior art; format: in vivo; conditions: for Emax at 4 ppm / Emax at 0.8 ppm: Myzus persicae, po, read-out: % efficacy
Method: Myzus persicae—Oral Test (MYZUPE O)
as §1
50 μl of the active compound preparation are transferred into microtitre plates and made up to a final volume of 200 μl with 150 μl of IPL41 insect medium (33%+15% sugar). Subsequently, the plates are sealed with parafilm, which a mixed population of green peach aphids (Myzus persicae) within a second microtitre plate is able to puncture and imbibe the solution through it.
as §2

[6] = test system: greenhouse red spider mite (Tetranychus urticae); test: Tetranychus urticae spray test, OP-resistant; format: in vivo; conditions: application rate 500 g/ha, after 6 days, bean leaf discs; 100% = all spider mites killed
Method: Tetranychus urticae—Spray Test, OP-Resistant
After 6 days, the efficacy in % is determined. 100% means that all the spider mites have been killed; 0% means that no spider mites have been killed.

[7] = application rate 500 g/ha, after 5-6 days, Chinese cabbage leaf discs, 100% = all aphids killed
[8] = application rate 20 ppm, after 5 days, oral, 100% = all aphids killed
[9] = reversed-phase HPLC column (C18), neutral range, pH 7.8, HPLC C18, 43° C., preparation examples, read-out: log P[n]
[10] = reversed-phase HPLC column (C18), neutral range, pH 7.8, HPLC C18, 43° C., Table 1, read-out: logP [n]
[11] = 120 h, MYZUPE, 100 g of ai/ha, 5 dat
[12] = 120 h, MYZUPE O, 0.8 ppm, 5 dat
[13] = neutral range, pH 7.8, HPLC C18, 43° C., Table 1

| Molecule | logP [n] ([1]; pH 7.8) | efficacy in % [2, 7] | efficacy in % [3, 8] | pest or weed control at 500 g/ha [2, 7] | pest or weed control at 20 ppm [3, 8] | chromatographic logP [1, 10] | other results |
| --- | --- | --- | --- | --- | --- | --- | --- |
| 2-(Ethylcarbamothioyl)-N,1-dimethyl-N-(pyridin-3-yl)-1H-imidazole-5-carboxamide [I-1-056] | 1.42 | 100% | 100% | – | – | – | % efficacy ([4]; MYZUPE, 100 g of ai/ha, 5 dat): 100%; % efficacy ([5]; MYZUPE O, 0.8 ppm, 5 dat): 100%; % efficacy ([5]; MYZUPE O, 4 ppm, 5 dat): 100% |
| CN(C(=O)c1cnc(/C=N/OCC2CC2)n1C)c1cccnc1 [I-1-008, 2-[(E)-(Cyclopropylmethoxyimino)methyl]-N,1-dimethyl-N-(pyridin-3-yl)-1H-imidazole-5-carboxamide] | – | – | – | 100% | 100% | – | chromatographic logP [1, 9]: 1.78; efficacy in % [6]: 90% |
| CN(C(=O)c1cnc(/C=N/OCc2ccc(Cl)cc2)n1C)c1cccnc1 [I-1-010] | 2.43 | 90% | 90% | – | – | – | efficacy in % [6]: 90% |
| CN(C(=O)c1cnc(/C=N/OCc2cccnc2)n1C)c1cccnc1 [I-1-024] | – | – | – | – | 100% | 1.24 | Emax at 4 ppm ([5]; 144 h, MYZUPE O, 4 ppm, 6 dat): 90% |
| CCOC(=O)c1ncc(C(=O)N(C)c2cccnc2)n1C [I-1-025] | – | – | – | – | – | 1.1 | pest or weed control at 500 g/ha [2]: 90%; pest or weed control at 20 ppm ([3]; po): 100%; Emax at 100 g/ha [4]: 90%; Emax at 0.8 ppm ([5]; 120 h): 90%; Emax at 4 ppm ([5]; 120 h): 100% |
| CN(C)C(=O)c1ncc(C(=O)N(C)c2cccnc2)n1C [I-1-033] | – | – | – | 100% | 100% | 0.6 | Emax at 100 g/ha [4, 11]: 90%; Emax at 0.8 ppm [5, 12]: 100%; Emax at 4 ppm ([5]; 120 h, MYZUPE O, 4 ppm, 5 dat): 100% |
| CCN(C(=O)c1cnc(C=NOC)n1C)c1cccnc1 [I-1-044] | – | – | – | 100% | – | 1.29 | Emax at 100 g/ha [4, 11]: 90%; Emax at 4 ppm ([5]; 120 h, MYZUPE O, 4 ppm, 5 dat): 100% |
| CCN(C(=O)c1cnc(C=NN(C)C(=O)OC)n1C)c1cccnc1 [I-1-045] | – | – | – | 90% | 100% | – | chromatographic logP ([1]; neutral range, pH 7.8, HPLC C18, 43° C., Table 1, read-out: logP [n]): 1.28; Emax at 100 g/ha [4, 11]: 90%; Emax at 4 ppm ([5]; 120 h, MYZUPE O, 4 ppm, 5 dat): 100% |
| CN(C(=O)c1cnc(C(=O)Nc2ccccc2)n1C)c1cccnc1 [I-1-047] | – | – | – | 100% | 100% | 1.82 | Emax at 100 g/ha [4, 11]: 90%; Emax at 4 ppm ([5]; 120 h, MYZUPE O, 4 ppm, 5 dat): 100% |
| CN(C(=O)c1cnc(C(=O)NCc2ccccc2)n1C)c1cccnc1 [I-1-050] | – | – | – | 90% | 100% | 1.75 | Emax at 100 g/ha [4, 11]: 90%; Emax at 0.8 ppm [5, 12]: 90%; Emax at 4 ppm ([5]; 120 h, MYZUPE O, 4 ppm, 5 dat): 90% |
| CN(C(=O)c1cnc(C(=O)N2CCCC2)n1C)c1cccnc1 [I-1-054, N,1-Dimethyl-N-(pyridin-3-yl)-2-(pyrrolidin-1-ylcarbonyl)-1H-imidazole-5-carboxamide] | – | – | – | 100% | 100% | 1.02 | – |
| CCNC(=S)c1ncc(C(=O)N(C)c2cccnc2)n1C [I-1-057] | 1.64 | 90% | 100% | – | – | – | log P[a] ([1]; pH 2.7): 1.21; log P[n] ([1]; pH 7.8): 1.42 |
| CCN(CC)C(=O)c1ncc(C(=O)N(C)c2cccnc2)n1C [I-1-058] | – | 100% | 100% | – | – | – | logP [n] [1, 13]: 1.11 |
| CN(C(=O)c1cnc(C(=O)N2CCOCC2)n1C)c1cccnc1 [I-1-059] | – | – | – | 100% | 100% | 0.73 | Emax at 100 g/ha [4, 11]: 100%; Emax at 4 ppm ([5]; 120 h, MYZUPE O, 4 ppm, 5 dat): 100% |
| CN(C(=O)c1cnc(C(=O)NC2CC2)n1C)c1cccnc1 [I-1-062] | 1.06 | 100% | 100% | – | – | – | – |
| COCCNC(=O)c1ncc(C(=O)N(C)c2cccnc2)n1C [I-1-064] | 0.94 | 90% | 100% | – | – | – | – |
| CC(C)CNC(=O)c1ncc(C(=O)N(C)c2cccnc2)n1C [I-1-065] | 1.57 | 100% | 100% | – | – | – | – |

| Molecule | logP [n] ([1]; pH 7.8) | efficacy in % [2, 7] | efficacy in % [3, 8] | pest or weed control at 500 g/ha [2, 7] | pest or weed control at 20 ppm [3, 8] | chromatographic logP [1, 10] | other results |
| --- | --- | --- | --- | --- | --- | --- | --- |
| CCNC(=O)c1ncc(C(=O)N(CC)c2cccnc2)n1C [I-1-066] | 1.24 | 100% | 100% | – | – | – | – |
| CN(C(=O)c1cnc(C(=O)C(C)(C)C#N)n1C)c1cccnc1 [I-1-067] | 1.55 | 100% | 100% | – | – | – | – |
| CCN(C)C(=O)c1ncc(C(=O)N(CC)c2cccnc2)n1C [I-1-068] | 1.12 | 100% | 90% | – | – | – | – |
| CON(C)C(=O)c1ncc(C(=O)N(C)c2cccnc2)n1C [I-1-069, N^2-Methoxy-N^2,N^5,1-trimethyl-N^5-(pyridin-3-yl)-1H-imidazole-2,5-dicarboxamide] | – | – | – | 100% | 100% | – | chromatographic logP [1, 9]: 0.72 |
| CN(C(=O)c1cnc(C(=O)NS(C)(=O)=O)n1C)c1cccnc1 [I-1-070] | – | – | – | – | 90% | -0.2 | Emax at 0.8 ppm [5, 12]: 100% |
| CN(C(=O)c1cnc(C(=O)N2CCC2)n1C)c1cccnc1 [I-1-071] | 0.89 | 90% | 100% | – | – | – | – |
| CCN(C(=O)c1cnc(C(=O)N(C)C)n1C)c1cccnc1 [I-1-072] | – | 100% | 100% | – | – | – | logP [n] [1, 13]: 0.88 |
| CN(C(=O)c1cnc(C(=O)NC2(C#N)CC2)n1C)c1cccnc1 [I-1-073] | 1.03 | 100% | 100% | – | – | – | – |
| CCn1c(C(=O)N(C)c2cccnc2)cnc1C(=O)N(C)C [I-1-074] | – | – | – | 100% | 90% | 0.86 | Emax at 100 g/ha [4, 11]: 90%; Emax at 0.8 ppm [5, 12]: 100%; Emax at 4 ppm ([5]; 120 h, MYZUPE O, 4 ppm, 5 dat): 100% |
| CCOC(=O)CNC(=O)c1ncc(C(=O)N(C)c2cccnc2)n1C [I-1-075] | 1.22 | 90% | 100% | – | – | – | – |
| CN(C(=O)c1cnc(C(=O)NCC#N)n1C)c1cccnc1 [I-1-076] | – | – | – | 100% | 100% | 0.78 | efficacy in % [6]: 90%; Emax at 100 g/ha [4, 11]: 90%; Emax at 0.8 ppm [5, 12]: 90%; Emax at 4 ppm ([5]; 120 h, MYZUPE O, 4 ppm, 5 dat): 90% |
| CN(C(=O)c1cnc(C(=O)NC(CO)c2ccccc2)n1C)c1cccnc1 (stereo not shown) [I-1-079] | 1.39 | 90% | 90% | – | – | – | – |
| Cc1ccc(N(C)C(=O)c2cnc(C(=O)N(C)C)n2C)cn1 [I-1-080] | – | 90% | 100% | – | – | – | logP [n] [1, 13]: 0.81 |
| CN(C(=O)c1cnc(C(=O)N(C)S(C)(=O)=O)n1C)c1cccnc1 [I-1-081] | 1.11 | 90% | 100% | – | – | – | – |
| CN(C)C(=O)c1ncc(C(=O)N(c2cccnc2)C2CC2)n1C [I-1-083] | – | – | – | 90% | 90% | 1.02 | Emax at 100 g/ha [4, 11]: 90% |
| CN(C(=O)c1cnc(C(=O)C2CC2)n1C)c1cccnc1 [I-1-084] | 1.32 | 90% | 100% | – | – | – | – |
| CC(=O)c1ncc(C(=O)N(C)c2cccnc2)n1C [I-1-085] | – | 90% | 100% | – | – | – | logP [n] [1, 13]: 0.87 |
